The values below come from patent US7691856B2, “Thiadiazoledioxides and thiadiazoleoxides as CXC- and CC-chemokine receptor ligands” (Schering Corporation, priority 2002, dated 2010).

The target in assay [1] is T1, hCXCR1 (Homo sapiens, UniProt P25024).
T1 construct: purchased Biosignal / Biosignal Packard; alternatively Euroscreen; host or cells: CHO cells over-expressing hCXCR1 (membranes)
T1 sequence (P25024 1-350): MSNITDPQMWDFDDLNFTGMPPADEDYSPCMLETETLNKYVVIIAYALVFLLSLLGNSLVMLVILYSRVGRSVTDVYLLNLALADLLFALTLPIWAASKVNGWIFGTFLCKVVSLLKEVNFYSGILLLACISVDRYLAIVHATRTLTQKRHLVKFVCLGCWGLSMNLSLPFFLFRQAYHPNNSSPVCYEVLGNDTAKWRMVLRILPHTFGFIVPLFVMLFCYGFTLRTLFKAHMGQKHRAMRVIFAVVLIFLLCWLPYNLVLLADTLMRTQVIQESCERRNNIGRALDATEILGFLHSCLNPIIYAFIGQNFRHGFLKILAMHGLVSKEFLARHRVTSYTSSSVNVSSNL
Nature of the assay: CXCR1 SPA assay ([125I]-IL-8 binding, hCXCR1-CHO membranes). The settings on record: [125I]-IL-8 binding to hCXCR1-CHO membranes. On the procedure: For each well of a 96 well plate, a reaction mixture of 10 μg hCXCR1-CHO overexpressing membranes (Biosignal) and 200 μg/well WGA-SPA beads (Amersham) in 100 μl was prepared in CXCR1 assay buffer (25 mM HEPES, pH 7.8, 2 mM CaCl2, 1 mM MgCl2, 125 mM NaCl, 0.1% BSA) (Sigma). A 0.4 nM stock of ligand, [125I]-IL-8 (NEN) was prepared in the CXCR1 assay buffer. 20× stock solutions of test compounds were prepared in DMSO (Sigma). A 6× stock solution of IL-8 (R&D) was prepared in […] assay buffer. The above solutions were added to a 96-well assay plate (PerkinElmer) as follows: 10 μl test compound or DMSO, 40 μl CXCR1 assay buffer or IL-8 stock, 100 μl of reaction mixture, 50 μl of ligand stock (Final [Ligand]=0.1 nM). The assay plates were shaken for 5 minutes on plate shaker, then incubated for 8 hours before cpm/well were determined in Microbeta Trilux counter (PerkinElmer). % Inhibition of Total binding-NSB (250 nM IL-8) was determined for IC50 values.
Alternative CXCR1 SPA Assay
Protocol using CXCR1-expressing membranes from Biosignal Packard
For each 50 μl reaction, a working stock of 0.25 μg/μl hCXCR1-CHO over-expressing membranes with a specific activity of 0.05 pmol/mg (Biosignal Packard) and 25 μg/μl WGA-SPA beads (Perkin Elmer Life Sciences) was prepared in CXCR1 assay buffer (25 mM HEPES, pH 7.8, 0.1 mM CaCl2, 1 mM MgCl2, 100 mM NaCl) (Sigma). […] The assay plates were incubated for 4 hours before cpm/well were determined in a Microbeta Trilux counter (Perkin Elmer Life Sciences). IC50 values were quantified using nonlinear regression analysis in GraphPad Prism. […]
For each 50 μl reaction, a working stock of 0.025 μg/μl hCXCR1-CHO over-expressing membranes with a specific activity of 3.47 pmol/mg (Euroscreen) and 5 μg/μl WGA-SPA beads (Perkin Elmer Life Sciences) was prepared in CXCR1 assay buffer (25 mM HEPES, pH 7.8, 2.0 mM CaCl2, 1 mM MgCl2, 125 mM NaCl) (Sigma). […] The assay plates were incubated for 4 hours before cpm/well were determined in a Microbeta Trilux counter (Perkin Elmer Life Sciences). […]

Assay [2] has as its target T2, hCXCR2 (Homo sapiens, UniProt P25025).
T2 construct: purchased Biosignal / Biosignal Packard; host or cells: CHO cells over-expressing hCXCR2 (membranes)
T2 sequence (P25025 1-360): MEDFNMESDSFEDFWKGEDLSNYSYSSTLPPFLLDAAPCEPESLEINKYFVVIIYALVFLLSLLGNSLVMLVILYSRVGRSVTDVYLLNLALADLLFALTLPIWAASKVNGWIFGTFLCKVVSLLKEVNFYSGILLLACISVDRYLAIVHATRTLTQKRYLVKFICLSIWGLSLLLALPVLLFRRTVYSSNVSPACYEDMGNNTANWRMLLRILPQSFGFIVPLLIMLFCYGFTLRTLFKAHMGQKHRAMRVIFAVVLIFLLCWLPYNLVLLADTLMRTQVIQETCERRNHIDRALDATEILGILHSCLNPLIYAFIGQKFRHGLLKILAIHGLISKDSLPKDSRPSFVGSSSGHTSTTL
Nature of the assay: CXCR2 SPA assay ([125I]-IL-8 binding, hCXCR2-CHO membranes). The settings on record: [125I]-IL-8 binding to hCXCR2-CHO membranes. On the procedure: For each well of a 96 well plate, a reaction mixture of 4 μg hCXCR2-CHO overexpressing membranes (Biosignal) and 200 μg/well WGA-SPA beads (Amersham) in 100 μl was prepared in CXCR2 assay buffer (25 mM HEPES, pH 7.4, 2 mM CaCl2, 1 mM MgCl2). A 0.4 nM stock of ligand, [125I]-IL-8 (NEN), was prepared in the CXCR2 assay buffer. 20× stock solutions of test compounds were prepared in DMSO (Sigma). A 6× stock solution of GRO-α (R&D) was prepared in CXCR2 assay buffer. The above solutions were added to a 96-well assay plate (PerkinElmer or Corning) as follows: 10 μl test compound or DMSO, 40 ul CXCR2 assay buffer or GRO-α stock, 100 μl of reaction mixture, 50 μl of ligand stock (Final [Ligand]=0.1 nM). When 40× stock solutions of test compounds in DMSO were prepared, then the above protocol was used except instead 5 μl test compound or DMSO and 45 μl CXCR2 assay buffer were used. […]
For each 50 μl reaction, a working stock of 0.031 μg/μl hCXCR2-CHO over-expressing membranes with a specific activity of 0.4 pmol/mg (Biosignal Packard) and 2.5 μg/μl WGA-SPA beads (Perkin Elmer Life Sciences) was prepared in CXCR2 assay buffer (25 mM HEPES, pH 7.4, 2.0 mM CaCl2, 1 mM MgCl2) (Sigma). […] The assay plates were incubated for 2 hours before cpm/well were determined in a Microbeta Trilux counter (Perkin Elmer Life Sciences). IC50 values were quantified using nonlinear regression analysis in GraphPad Prism. […]
For each 200 μl reaction, a working stock of 0.02 μg/μl hCXCR2-CHO over-expressing membranes with a specific activity of 0.6 pmol/mg (Biosignal Packard) and 2 μg/μl WGA-SPA beads (Perkin Elmer Life Sciences) was prepared in CXCR2 assay buffer (25 mM HEPES, pH 7.4, 2.0 mM CaCl2, 1 mM MgCl2) (Sigma). […] The assay plates were incubated for 2 hours before cpm/well were determined in a Microbeta Trilux counter (Perkin Elmer Life Sciences). IC50 values were quantified using nonlinear regression analysis in GraphPad Prism.

Assay [3] concerns the target T3, CCR7 (Homo sapiens, UniProt P32248).
T3 sequence (P32248 25-378): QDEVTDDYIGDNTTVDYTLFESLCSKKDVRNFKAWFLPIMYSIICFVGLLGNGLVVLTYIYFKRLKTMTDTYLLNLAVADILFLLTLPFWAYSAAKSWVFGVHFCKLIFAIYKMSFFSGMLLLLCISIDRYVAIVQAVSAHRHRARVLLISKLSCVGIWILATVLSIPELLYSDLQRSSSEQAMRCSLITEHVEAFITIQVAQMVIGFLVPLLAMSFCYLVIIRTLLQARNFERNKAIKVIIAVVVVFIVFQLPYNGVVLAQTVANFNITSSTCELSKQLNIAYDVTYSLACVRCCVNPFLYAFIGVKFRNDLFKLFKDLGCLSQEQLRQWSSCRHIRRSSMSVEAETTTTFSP
As to the kind of experiment: CCR7 [35S]GTPγS exchange assay (SPA, Ba/F3-CCR7 membranes). (Binding of GTPγS marks nucleotide exchange on a G protein.)
Protocol: CCR7 [^35S]GTPγS Exchange Assay.
The exchange of guanosine 5′-[γ-^35S]triphospate ([^35S]GTPγS, triethylammonium salt; specific activity 1250 Ci/mmol; NEN Boston, Mass.) was measured using a scintillation proximity assay (SPA) as previously described (Cox, et. al., Mol. Pharmacol., 59, 2001, 707-15). For each assay point, 2 μg of membrane was preincubated for 30 min at room temperature with 200 μg wheat germ agglutinin-coated SPA beads (WGA-SPA; Amersham, Arlington Heights, Ill.) in SPA binding buffer (50 mM HEPES, 10 mM MgCl2, 1 mM EDTA, 100 mM NaCl, 0.1% BSA, pH 7.6). The beads and membranes were transferred to a 96-well Isoplate (Wallac, Gaithersburg, Md.) and incubated with 10 μM guanosine 5′-diphosphate (GDP) in the presence or absence of 2 nM MIP-30 and/or compounds for 60 min at room temperature. The incubation continued for another 60 min. following the addition of 0.1 nM [^35S]GTPγS. Membrane-bound [^35S]GTPγS was measured using a 1450 Microbeta Trilux counter (Wallac, Gaithersburg, Md.).

Broadly, the Ki is the dissociation constant of the complex between target and ligand, obtained from inhibition or displacement. Low values mean higher affinity, high ones lower affinity. Consider `CC(C)c1coc([C@H](NC2=NS(=O)(=O)N=C2Nc2ccc(Br)c(C(=O)N(C)C)c2O)C(C)(C)C)c1` [Example 56], for which the values for the Ki in assay [1] and in assay [2] were 4 nM and 7 nM, respectively.
In the same order, the values of `CC[C@@H](Nc1n[s+]([O-])nc1Nc1cccc(C(=O)N(C)C)c1O)c1cc(C(C)C)co1` (stereo partly drawn) [Example 201.1] are 123 nM and 3.5 nM.
As to `Cc1cc([C@H](Nc2n[s+]([O-])nc2Nc2cccc(C(=O)N(C)C)c2O)C(C)C)oc1C` (stereo partly drawn) [Example 201.9], the Ki in assay [1] was 50 nM; in assay [2] it was 2.7 nM.
As usually defined, the EC50 is the concentration giving half of the maximal effect. The low end stands for higher potency in that assay, the high end for lower potency in that assay. In assay [3], `CCN(CC)S(=O)(=O)c1scc(NC2=NS(=O)(=O)N=C2N[C@@H](c2ccc(C)o2)C(C)(C)C)c1O` [Example 2065] registered an EC50 of 13 nM.
On the same count and under the same terms, the same measure for `Cc1ccc([C@H](NC2=NS(=O)(=O)N=C2Nc2csc(S(=O)(=O)N3CCOCC3)c2O)C(C)(C)C)o1` [Example 2066]: 16 nM.
With `CCC(C)(C)[C@@H](NC1=NS(=O)(=O)N=C1Nc1cccc(C(=O)N(C)C)c1O)c1ccc(C)o1` [Example 2106], in assay [3], the EC50 is 12 nM.
